The subject of this data set is human EPAS1 (Hif2α) cDNA in psiCHECK2 (Renilla luciferase/EPAS1 fusion mRNA) in Hep3B cells. Nature of the data set: Efficacy screen of Hif2α RNAi triggers in vitro, dual-luciferase reporter assay (1 nM and 0.1 nM). It is filed as cell-based. Conditions: Hep3B cells co-transfected with EPAS1-psiCHECK2, Renilla luciferase normalized to firefly luciferase. An outline of the steps:
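Hep3B cells (10,000/well) co-transfected with chemically modified siRNA triggers at 1 nM and 0.1 nM plus 25 ng EPAS1-psiCHECK2 plasmid via LipoFectamine 2000. Knockdown measured as Renilla luciferase from the EPAS1 fusion mRNA, normalized to constitutive firefly luciferase by dual-luciferase assay.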
(In general: In a reporter assay the amount or activity of a reporter protein is the signal.)

Strand notation (5' to 3'): a small letter for the sugar, then the base; units joined by * are phosphorothioate-linked, units joined directly phosphodiester-linked; [ ] holds rarer units or linkages, { } end groups; capitals alone tell only the bases. d = 2'-deoxy (DNA); m = 2'-O-methyl; f = 2'-fluoro

“2321 (sense fUmUfGmAfUmGfCmCfGmGfAmCfAmAfGmCfCmAfAdT; antisense dTfUmGfGmCfUmUfGmUfCmCfGmGfCmAfUmCfAmAdT*dT; siRNA) [compound 2321]”: the “Relative Rluc-Hif2α” value turned out to be 0.561 ± 0.043 (0.1 nM RNAi trigger) and 0.665 ± 0.033 (1 nM RNAi trigger).
For the substance “2322 (sense fGmGfAmCfAmAfGmCfCmAfCmUfGmAfGmCfGmCfAdT; antisense dTfGmCfGmCfUmCfAmGfUmGfGmCfUmUfGmUfCmCdT*dT; siRNA) [compound 2322]”, the “Relative Rluc-Hif2α” value reads like this: (0.1 nM RNAi trigger) 0.468 ± 0.012; (1 nM RNAi trigger) 0.306 ± 0.059.
In the same order, the values of “2323 (sense fAmCfAmAfGmCfCmAfCmUfGmAfGmCfGmCfAmAfAdT; antisense dTfUmUfGmCfGmCfUmCfAmGfUmGfGmCfUmUfGmUdT*dT; siRNA) [compound 2323]” are 0.631 ± 0.085 and 0.664 ± 0.166.
For the substance “2324 (sense fGmGfAmCfUmAfCmAfGmCfCmUfGmUfCmGfUmCfAdT; antisense dTfGmAfCmGfAmCfAmGfGmCfUmGfUmAfGmUfCmCdT*dT; siRNA) [compound 2324]”, the “Relative Rluc-Hif2α” value turned out to be 1.081 ± 0.293 (0.1 nM RNAi trigger) and 1.046 ± 0.208 (1 nM RNAi trigger).
As to “2325 (sense fGmAfCmUfAmCfAmGfCmCfUmGfUmCfGmUfCmAfAdT; antisense dTfUmGfAmCfGmAfCmAfGmGfCmUfGmUfAmGfUmCdT*dT; siRNA) [compound 2325]”, the “Relative Rluc-Hif2α” value by setting is: (0.1 nM RNAi trigger) 1.304 ± 0.134; (1 nM RNAi trigger) 1.379 ± 0.275.
With “2326 (sense fCmUfAmCfAmGfCmCfUmGfUmCfGmUfCmAfGmCfAdT; antisense dTfGmCfUmGfAmCfGmAfCmAfGmGfCmUfGmUfAmGdT*dT; siRNA) [compound 2326]”, the “Relative Rluc-Hif2α” value (0.1 nM RNAi trigger) is recorded as 0.660 ± 0.114 and the “Relative Rluc-Hif2α” value (1 nM RNAi trigger) is 0.546 ± 0.083.
Turning to “2327 (sense fCmCfUmGfUmCfGmUfCmAfGmCfCmCfAmCfAmAfAdT; antisense dTfUmUfGmUfGmGfGmCfUmGfAmCfGmAfCmAfGmGdT*dT; siRNA) [compound 2327]”, the “Relative Rluc-Hif2α” value (0.1 nM RNAi trigger) is listed as 1.339 ± 0.179 and the “Relative Rluc-Hif2α” value (1 nM RNAi trigger) is reported as 1.073 ± 0.089.
The like results for “2328 (sense fGmCfAmUfGmGfCmAfAmGfCmCfGmGfCmUfGmCfAdT; antisense dTfGmCfAmGfCmCfGmGfCmUfUmGfCmCfAmUfGmCdT*dT; siRNA) [compound 2328]” were, in that order, 1.291 ± 0.109 and 1.192 ± 0.144.
For “2329 (sense fCmUfGmAfCmCfAmGfAmUfAmUfGmAfCmUfGmUfAdT; antisense dTfAmCfAmGfUmCfAmUfAmUfCmUfGmGfUmCfAmGdT*dT; siRNA) [compound 2329]”, the “Relative Rluc-Hif2α” value reads like this: (0.1 nM RNAi trigger) 0.807 ± 0.117; (1 nM RNAi trigger) 0.456 ± 0.064.
Take “2330 (sense fGmAfUmAfUmGfAmCfUmGfUmGfAmGfGmUfGmAfAdT; antisense dTfUmCfAmCfCmUfCmAfCmAfGmUfCmAfUmAfUmCdT*dT; siRNA) [compound 2330]”: the “Relative Rluc-Hif2α” value runs as follows: (0.1 nM RNAi trigger) 1.097 ± 0.416; (1 nM RNAi trigger) 0.464 ± 0.035.
The like results for “2331 (sense fGmGfUmGfAmAfCmGfUmGfCmCfCmGfUmGfCmUfAdT; antisense dTfAmGfCmAfCmGfGmGfCmAfCmGfUmUfCmAfCmCdT*dT; siRNA) [compound 2331]” were, in that order, 1.002 ± 0.321 and 0.783 ± 0.080.
In the same order, the values of “2332 (sense fUmAfCmAfAmGfAmUfGmGfAmCfUmUfAmCfCmUfAdT; antisense dTfAmGfGmUfAmAfGmUfCmCfAmUfCmUfUmGfUmAdT*dT; siRNA) [compound 2332]” are 1.174 ± 0.027 and 0.871 ± 0.235.
“2333 (sense fGmGfAmCfUmUfAmCfCmUfGmGfCmAfGmAfCmUfAdT; antisense dTfAmGfUmCfUmGfCmCfAmGfGmUfAmAfGmUfCmCdT*dT; siRNA) [compound 2333]”: the “Relative Rluc-Hif2α” value is, setting by setting: (0.1 nM RNAi trigger) 0.684 ± 0.147; (1 nM RNAi trigger) 0.291 ± 0.019.
As for “2334 (sense fUmUfUmUfUmCfUmGfAmGfAmUfGmCfUmCfAmCfAdT; antisense dTfGmUfGmAfGmCfAmUfCmUfCmAfGmAfAmAfAmAdT*dT; siRNA) [compound 2334]”, the “Relative Rluc-Hif2α” value stood at 0.672 ± 0.082 (0.1 nM RNAi trigger) and 0.389 ± 0.044 (1 nM RNAi trigger).
In the same order, the values of “2335 (sense fAmGfUmAfCmAfCmAfAmUfUmGfUmUfUmUfAmCfAdT; antisense dTfGmUfAmAfAmAfCmAfAmUfUmGfUmGfUmAfCmUdT*dT; siRNA) [compound 2335]” are 0.311 ± 0.032 and 0.104 ± 0.013.
Turning to “2336 (sense fAmCfAmAfGmUfUmUfGmGfUmGfCmAfUmGfUmCfAdT; antisense dTfGmAfCmAfUmGfCmAfCmCfAmAfAmCfUmUfGmUdT*dT; siRNA) [compound 2336]”, the “Relative Rluc-Hif2α” value is on record as 0.783 ± 0.037 (0.1 nM RNAi trigger) and 0.299 ± 0.034 (1 nM RNAi trigger).
Take “2337 (sense fAmCfUmAfAmAfAmAfGmAfUmUfCmCfUmCfGmUfAdT; antisense dTfAmCfGmAfGmGfAmAfUmCfUmUfUmUfUmAfGmUdT*dT; siRNA) [compound 2337]”: the “Relative Rluc-Hif2α” value was found to be 0.334 ± 0.066 (0.1 nM RNAi trigger) and 0.131 ± 0.033 (1 nM RNAi trigger).
For the substance “2338 (sense fAmGfGmGfUmCfAmAfCmUfCmCfAmAfCmGfUmAfAdT; antisense dTfUmAfCmGfUmUfGmGfAmGfUmUfGmAfCmCfCmUdT*dT; siRNA) [compound 2338]”, the “Relative Rluc-Hif2α” value amounted to 0.743 ± 0.070 (0.1 nM RNAi trigger) and 0.334 ± 0.091 (1 nM RNAi trigger).
With “2339 (sense fGmGfGmUfCmAfAmCfUmCfCmAfAmCfGmUfAmUfAdT; antisense dTfAmUfAmCfGmUfUmGfGmAfGmUfUmGfAmCfCmCdT*dT; siRNA) [compound 2339]”, the “Relative Rluc-Hif2α” value (0.1 nM RNAi trigger) was found to be 0.523 ± 0.134 and the “Relative Rluc-Hif2α” value (1 nM RNAi trigger) was 0.189 ± 0.028.
“2340 (sense fGmUfCmAfAmCfUmCfCmAfAmCfGmUfAmUfGmUfAdT; antisense dTfAmCfAmUfAmCfGmUfUmGfGmAfGmUfUmGfAmCdT*dT; siRNA) [compound 2340]”: the “Relative Rluc-Hif2α” value (0.1 nM RNAi trigger) turned out to be 0.920 ± 0.114 and the “Relative Rluc-Hif2α” value (1 nM RNAi trigger) came to 0.444 ± 0.039.
Turning to “2341 (sense fUmCfAmAfCmUfCmCfAmAfCmGfUmAfUmGfUmGfAdT; antisense dTfCmAfCmAfUmAfCmGfUmUfGmGfAmGfUmUfGmAdT*dT; siRNA) [compound 2341]”, the “Relative Rluc-Hif2α” value runs as follows: (0.1 nM RNAi trigger) 0.378 ± 0.116; (1 nM RNAi trigger) 0.202 ± 0.018.
On to “2342 (sense fCmAfAmCfUmCfCmAfAmCfGmUfAmUfGmUfGmGfAdT; antisense dTfCmCfAmCfAmUfAmCfGmUfUmGfGmAfGmUfUmGdT*dT; siRNA) [compound 2342]”, for which the “Relative Rluc-Hif2α” value (0.1 nM RNAi trigger) is given as 1.058 ± 0.064 and the “Relative Rluc-Hif2α” value (1 nM RNAi trigger) stood at 0.549 ± 0.041.
Take “2343 (sense fCmUfCmCfAmAfCmGfUmAfUmGfUmGfGmUfUmAfAdT; antisense dTfUmAfAmCfCmAfCmAfUmAfCmGfUmUfGmGfAmGdT*dT; siRNA) [compound 2343]”: the “Relative Rluc-Hif2α” value (0.1 nM RNAi trigger) is 0.620 ± 0.208 and the “Relative Rluc-Hif2α” value (1 nM RNAi trigger) came out at 0.254 ± 0.009.
The like results for “2344 (sense fUmCfCmAfAmCfGmUfAmUfGmUfGmGfUmUfAmUfAdT; antisense dTfAmUfAmAfCmCfAmCfAmUfAmCfGmUfUmGfGmAdT*dT; siRNA) [compound 2344]” were, in that order, 0.570 ± 0.071 and 0.276 ± 0.033.
Take “2345 (sense fCmCfAmAfCmGfUmAfUmGfUmGfGmUfUmAfUmCfAdT; antisense dTfGmAfUmAfAmCfCmAfCmAfUmAfCmGfUmUfGmGdT*dT; siRNA) [compound 2345]”: the “Relative Rluc-Hif2α” value (0.1 nM RNAi trigger) is on record as 0.296 ± 0.096 and the “Relative Rluc-Hif2α” value (1 nM RNAi trigger) is listed as 0.129 ± 0.026.
“2346 (sense fAmAfCmGfUmAfUmGfUmGfGmUfUmAfUmCfUmGfAdT; antisense dTfCmAfGmAfUmAfAmCfCmAfCmAfUmAfCmGfUmUdT*dT; siRNA) [compound 2346]”: the “Relative Rluc-Hif2α” value is, setting by setting: (0.1 nM RNAi trigger) 0.523 ± 0.133; (1 nM RNAi trigger) 0.273 ± 0.012.
“2347 (sense fUmUfAmUfAmUfCmUfGmGfGmUfUmAfAmGfUmGfAdT; antisense dTfCmAfCmUfUmAfAmCfCmCfAmGfAmUfAmUfAmAdT*dT; siRNA) [compound 2347]”: the “Relative Rluc-Hif2α” value reads like this: (0.1 nM RNAi trigger) 0.753 ± 0.092; (1 nM RNAi trigger) 0.530 ± 0.040.
With “2348 (sense fCmCfAmCfGmGfCmCfUmGfUmAfCmGfGmAfCmAfAdT; antisense dTfUmGfUmCfCmGfUmAfCmAfGmGfCmCfGmUfGmGdT*dT; siRNA) [compound 2348]”, the “Relative Rluc-Hif2α” value reads like this: (0.1 nM RNAi trigger) 0.840 ± 0.270; (1 nM RNAi trigger) 0.454 ± 0.096.
Regarding “2349 (sense fAmCfGmGfCmCfUmGfUmAfCmGfGmAfCmAfCmUfAdT; antisense dTfAmGfUmGfUmCfCmGfUmAfCmAfGmGfCmCfGmUdT*dT; siRNA) [compound 2349]”, the “Relative Rluc-Hif2α” value was determined as 0.674 ± 0.172 (0.1 nM RNAi trigger) and 0.504 ± 0.062 (1 nM RNAi trigger).
In the same order, the values of “2350 (sense fUmGfUmCfGmGfCmUfUmUfUmUfGmCfCmAfUmCfAdT; antisense dTfGmAfUmGfGmCfAmAfAmAfAmGfCmCfGmAfCmAdT*dT; siRNA) [compound 2350]” are 0.755 ± 0.085 and 0.678 ± 0.105.
Consider “2351 (sense fGmUfCmGfGmCfUmUfUmUfUmGfCmCfAmUfCmUfAdT; antisense dTfAmGfAmUfGmGfCmAfAmAfAmAfGmCfCmGfAmCdT*dT; siRNA) [compound 2351]”, for which the “Relative Rluc-Hif2α” value is on record as 1.216 ± 0.415 (0.1 nM RNAi trigger) and 1.306 ± 0.216 (1 nM RNAi trigger).
As to “2352 (sense fAmUfCmUfGmUfGmAfUmAfUmGfCmCfAmUfAmGfAdT; antisense dTfCmUfAmUfGmGfCmAfUmAfUmCfAmCfAmGfAmUdT*dT; siRNA) [compound 2352]”, the “Relative Rluc-Hif2α” value runs as follows: (0.1 nM RNAi trigger) 1.012 ± 0.048; (1 nM RNAi trigger) 0.749 ± 0.049.

These data come from patent US9976141B2, “Compositions and methods for inhibiting gene expression of Hif2alpha” (Arrowhead Madison Inc., priority 2015, dated 2018).
